Laboratory results: paper PMC10893631, “Receptor-based pharmacophore modeling, molecular docking, synthesis and biological evaluation of novel VEGFR-2, FGFR-1, and BRAF multi-kinase inhibitors” (BMC Chemistry, 2024)

Columns and labels:
Test in all cases: NCI SRB growth inhibition (single dose 10 µM / five-dose)
Assay type in all cases: cell-based, human
[1] = tested on: A498; settings: Homo sapiens; for inhibition at 10 µM: A498 (Renal cancer), read-out: GI%
Outline: (§1)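 Seeding varied with cell doubling time (5000–40,000 cells/well). Dilutions were 10-fold or ½ log, five levels in total. Sulforhodamine B staining (0.4% w/v, 10 min, room temperature) of TCA-fixed cells measured growth.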

[2] = tested on: A549/ATCC; settings: Homo sapiens; for inhibition at 10 µM: A549/ATCC (Non-small cell lung cancer), read-out: GI%
Outline: as §1

[3] = tested on: CCRF-CEM; settings: Homo sapiens; for inhibition at 10 µM: CCRF-CEM (Leukemia), read-out: GI%
Outline: as §1

[4] = tested on: HCC-2998; settings: Homo sapiens; for inhibition at 10 µM: HCC-2998 (Colon cancer), read-out: GI%
Outline: as §1

[5] = tested on: HCT-116; settings: Homo sapiens, HCT-116; for inhibition at 10 µM: read-out: GI%
Outline: as §1

[6] = tested on: HCT-15; settings: Homo sapiens; for inhibition at 10 µM: HCT-15 (Colon cancer), read-out: GI%
Outline: as §1

[7] = tested on: HOP-92; settings: Homo sapiens; for inhibition at 10 µM: HOP-92 (Non-small cell lung cancer), read-out: GI%
Outline: as §1

[8] = tested on: HS 578 T; settings: Homo sapiens; for inhibition at 10 µM: HS 578 T (Breast cancer), read-out: GI%
Outline: as §1

[9] = tested on: MALME-3 M; settings: Homo sapiens; for inhibition at 10 µM: MALME-3 M (Melanoma), read-out: GI%
Outline: as §1

[10] = tested on: MCF7; settings: Homo sapiens; for inhibition at 10 µM: MCF7 (Breast cancer), read-out: GI%
Outline: as §1

[11] = tested on: MDA-MB-435; settings: Homo sapiens; for inhibition at 10 µM: MDA-MB-435 (Melanoma), read-out: GI%
Outline: as §1

[12] = tested on: MOLT-4; settings: Homo sapiens; for inhibition at 10 µM: MOLT-4 (Leukemia), read-out: GI%
Outline: as §1

[13] = tested on: NCI-H322M; settings: Homo sapiens; for inhibition at 10 µM: NCI-H322M (Non-small cell lung cancer), read-out: GI%
Outline: as §1

[14] = tested on: NCI-H460; settings: Homo sapiens; for inhibition at 10 µM: NCI-H460 (Non-small cell lung cancer), read-out: GI%
Outline: as §1

[15] = tested on: OVCAR-3; settings: Homo sapiens; for inhibition at 10 µM: OVCAR-3 (Ovarian cancer), read-out: GI%
Outline: as §1

[16] = tested on: OVCAR-5; settings: Homo sapiens; for inhibition at 10 µM: OVCAR-5 (Ovarian cancer), read-out: GI%
Outline: as §1

[17] = tested on: OVCAR-8; settings: Homo sapiens; for inhibition at 10 µM: OVCAR-8 (Ovarian cancer), read-out: GI%
Outline: as §1

[18] = tested on: PC-3; settings: Homo sapiens; for inhibition at 10 µM: PC-3 (Prostate cancer), read-out: GI%
Outline: as §1

[19] = tested on: RXF 393; settings: Homo sapiens; for inhibition at 10 µM: RXF 393 (Renal cancer), read-out: GI%
Outline: as §1

[20] = tested on: SF-539; settings: Homo sapiens; for inhibition at 10 µM: SF-539 (CNS cancer), read-out: GI%
Outline: as §1

[21] = tested on: SK-MEL-28; settings: Homo sapiens; for inhibition at 10 µM: SK-MEL-28 (Melanoma), read-out: GI%
Outline: as §1

[22] = tested on: SK-OV-3; settings: Homo sapiens; for inhibition at 10 µM: SK-OV-3 (Ovarian cancer), read-out: GI%
Outline: as §1

[23] = tested on: SW-620; settings: Homo sapiens; for inhibition at 10 µM: SW-620 (Colon cancer), read-out: GI%
Outline: as §1

[24] = tested on: T-47D; settings: Homo sapiens, T47D; for inhibition at 10 µM: T-47D (Breast cancer), read-out: GI%
Outline: as §1

[25] = tested on: U251; settings: Homo sapiens, U-251; for inhibition at 10 µM: U251 (CNS cancer), read-out: GI%
Outline: as §1

[26] = tested on: UO-31; settings: Homo sapiens; for inhibition at 10 µM: UO-31 (Renal cancer), read-out: GI%
Outline: as §1

Work on `COc1ccc(-c2nc3cc(C(=O)NN=Cc4cc(OC)c(OC)c(OC)c4)ccc3[nH]2)cc1` [8n, 2-(4-Methoxyphenyl)-N'-(3,4,5-trimethoxybenzylidene)-1H-benzo[d]imidazole-5-carbohydrazide] yielded an inhibition at 10 µM [1] of under 5%, an inhibition at 10 µM [2] of under 5% and an inhibition at 10 µM [3] of 38.8%. For the same compound, the inhibition at 10 µM [4] was under 5%, the inhibition at 10 µM [5] was 23.4% and the inhibition at 10 µM [6] was under 5%. The inhibition at 10 µM [7] was under 5%, the inhibition at 10 µM [8] was 37.7% and the inhibition at 10 µM [9] was 76.8%. It also gave an inhibition at 10 µM [10] of 73.1%, an inhibition at 10 µM [11] of 25% and an inhibition at 10 µM [12] of 22.1%. For the same compound, the inhibition at 10 µM [13] was under 5%, the inhibition at 10 µM [14] was under 5% and the inhibition at 10 µM [15] was under 5%. For the same compound, the inhibition at 10 µM [16] was under 5%, the inhibition at 10 µM [17] was 15% and the inhibition at 10 µM [18] was 12.9%. It also gave an inhibition at 10 µM [19] of 20.1%, an inhibition at 10 µM [20] of 24.4% and an inhibition at 10 µM [21] of 31.4%. It also gave an inhibition at 10 µM [22] of 20.2%, an inhibition at 10 µM [23] of under 5% and an inhibition at 10 µM [24] of 38.1%. The inhibition at 10 µM [25] was 15.3% and the inhibition at 10 µM [26] was 21.8%.
Compound `O=C(NN=Cc1ccccc1O)c1ccc2[nH]c(-c3ccc(Cl)cc3)nc2c1` [8o, 2-(4-Chlorophenyl)-N'-(2-hydroxybenzylidene)-1H-benzo[d]imidazole-5-carbohydrazide] has an inhibition at 10 µM [1] of 53.9%, a GI50 ([1]; A498, Renal cancer, five-dose) of 8100 nM and an inhibition at 10 µM [2] of 87%. The GI50 ([2]; A549/ATCC, Non-small cell lung cancer, five-dose) was 1800 nM, the inhibition at 10 µM [3] was over 100% and the GI50 ([3]; CCRF-CEM, Leukemia, five-dose) was over 38800 nM. For the same compound, the inhibition at 10 µM [4] was 78%, the GI50 ([4]; HCC-2998, Colon cancer, five-dose) was 1380 nM and the GI50 [5] was 1080 nM. It also gave an inhibition at 10 µM [5] of 98.4%, an inhibition at 10 µM [6] of over 100% and a GI50 ([6]; HCT-15, Colon cancer, five-dose) of 200 nM. The inhibition at 10 µM [7] was over 100%, the GI50 ([7]; HOP-92, Non-small cell lung cancer, five-dose) was over 38800 nM and the inhibition at 10 µM [8] was over 100%. The GI50 ([8]; HS 578 T, Breast cancer, five-dose) was 260 nM, the inhibition at 10 µM [9] was over 100% and the GI50 ([9]; MALME-3 M, Melanoma, five-dose) was 1030 nM. For the same compound, the inhibition at 10 µM [10] was 93.7%, the GI50 ([10]; MCF7, Breast cancer, five-dose) was 160 nM and the inhibition at 10 µM [11] was over 100%. The GI50 ([11]; MDA-MB-435, Melanoma, five-dose) was 530 nM, the inhibition at 10 µM [12] was 60.8% and the GI50 ([12]; MOLT-4, Leukemia, five-dose) was 280 nM. It also gave an inhibition at 10 µM [13] of 70.2%, a GI50 ([13]; NCI-H322M, Non-small cell lung cancer, five-dose) of 1380 nM and an inhibition at 10 µM [14] of over 100%. For the same compound, the GI50 ([14]; NCI-H460, Non-small cell lung cancer, five-dose) was 250 nM, the inhibition at 10 µM [15] was over 100% and the GI50 ([15]; OVCAR-3, Ovarian cancer, five-dose) was 190 nM. The inhibition at 10 µM [16] was 55.9%, the GI50 ([16]; OVCAR-5, Ovarian cancer, five-dose) was 2120 nM and the inhibition at 10 µM [17] was over 100%. For the same compound, the GI50 ([17]; OVCAR-8, Ovarian cancer, five-dose) was 980 nM, the inhibition at 10 µM [18] was 78.5% and the GI50 ([18]; PC-3, Prostate cancer, five-dose) was over 38800 nM. The inhibition at 10 µM [19] was over 100%, the GI50 ([19]; RXF 393, Renal cancer, five-dose) was 790 nM and the inhibition at 10 µM [20] was over 100%. For the same compound, the GI50 ([20]; SF-539, CNS cancer, five-dose) was 370 nM, the inhibition at 10 µM [21] was 78.2% and the GI50 ([21]; SK-MEL-28, Melanoma, five-dose) was 1850 nM. For the same compound, the GI50 ([22]; SK-OV-3, Ovarian cancer, five-dose) was 4530 nM, the inhibition at 10 µM [23] was over 100% and the GI50 ([23]; SW-620, Colon cancer, five-dose) was 330 nM. For the same compound, the GI50 ([24]; T-47D, Breast cancer, five-dose) was 1480 nM, the inhibition at 10 µM [25] was over 100% and the GI50 ([25]; U251, CNS cancer, five-dose) was 830 nM. It also gave an inhibition at 10 µM [26] of over 100% and a GI50 ([26]; UO-31, Renal cancer, five-dose) of 310 nM.
Compound `O=C(NN=Cc1cccc(O)c1)c1ccc2[nH]c(-c3ccc(Cl)cc3)nc2c1` [8p, 2-(4-Chlorophenyl)-N'-(3-hydroxybenzylidene)-1H-benzo[d]imidazole-5-carbohydrazide] has an inhibition at 10 µM [1] of 10.2%, an inhibition at 10 µM [2] of 7.53% and an inhibition at 10 µM [3] of 71.9%. For the same compound, the inhibition at 10 µM [4] was 15.9%, the inhibition at 10 µM [5] was 37.7% and the inhibition at 10 µM [6] was under 5%. The inhibition at 10 µM [7] was 6.79%, the inhibition at 10 µM [8] was 27.1% and the inhibition at 10 µM [9] was 58.9%. It also gave an inhibition at 10 µM [10] of 72.3%, an inhibition at 10 µM [11] of 15.2% and an inhibition at 10 µM [12] of 68.6%. The inhibition at 10 µM [13] was under 5%, the inhibition at 10 µM [14] was 56.6% and the inhibition at 10 µM [15] was under 5%. It also gave an inhibition at 10 µM [16] of under 5%, an inhibition at 10 µM [17] of 19% and an inhibition at 10 µM [18] of 48.8%. It also gave an inhibition at 10 µM [19] of 31.6%, an inhibition at 10 µM [20] of 32.4% and an inhibition at 10 µM [21] of 16%. The inhibition at 10 µM [22] was 36.2%, the inhibition at 10 µM [23] was 6.31% and the inhibition at 10 µM [24] was 79.8%. For the same compound, the inhibition at 10 µM [25] was 75.5% and the inhibition at 10 µM [26] was 14.9%.
